Results as given in patent US10793557B2, “Sting agonist compounds” (Merck Sharp & Dohme Corp., priority 2018, dated 2020).

Experiments:
full-length HAQ STING = biological target: T1, full-length HAQ STING (Homo sapiens, UniProt Q86WV6, G230A/H232R/R293Q/R71H); assay: 3H-cGAMP filtration binding assay (HAQ STING); conditions: competition with tritiated cGAMP, HAQ STING membrane
T1 construct: AviTag (after GG linker) (C); HRV3C cleavage site (after GS linker) (C); HIS8 (C); made in house; host or cells: Trichoplusia ni (Hi-Five) insect cells infected with baculovirus (virus generated and amplified in Sf21 cells); used as a washed membrane preparation
Procedure, shortened: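 Hi-Five (T. ni) membranes overexpressing the STING variant (2.2 ug/ml working) preincubated with compound 60 min at RT in PBS, then [3H]cGAMP (8 nM working stock) added for 60 min at RT. Bound radioactivity captured on GF/B filters and counted by scintillation; EC50 from 4-parameter fit of control-normalized activity.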

full-length WT STING = biological target: T2, full-length WT STING (Homo sapiens, UniProt Q86WV6, H232R); assay: 3H-cGAMP filtration binding assay (WT STING); conditions: competition with tritiated cGAMP, WT STING membrane
T2 construct: AviTag (after gg linker) (C); HRV3C cleavage site (after gs linker) (C); HIS8 (C); made in house; host or cells: Trichoplusia ni (Hi-Five) insect cells infected with baculovirus (virus generated and amplified in Sf21 cells); used as a washed membrane preparation
Procedure, shortened: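 Competitive filtration binding of [3H]cGAMP (16 nM working stock) to T. ni membranes overexpressing full-length WT human STING, 60 min at RT in PBS. Bound radioactivity counted after GF/B filtration; 10-point 1:3 titration, EC50 from 4-parameter fit after control normalisation.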

[1] = tested on: secretion of interferon-beta from THP1 cells; assay: IFN-β secretion in THP1 cell culture (5 h); type: cell-based; conditions: Homo sapiens, THP-1, 5 h, compound at 30 μM, 30 uM cGAMP = 100%, read-out: % Effect at 30 μM relative to 2′3′-cGAMP
Procedure, shortened: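 Thawed THP1 cells (0.8×10^6/mL, RPMI with 0.5% FBS) exposed to compounds 1.5–30000 nM (0.3% DMSO) for 5 h at 37 °C. Supernatant IFN-β quantified by AlphaLISA. Percent effect normalised to 30 uM cGAMP and DMSO controls; EC50 from 4-parameter fit.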

T1 sequence (Q86WV6 with tags, fused parts or gaps R71H/G230A/H232R/R293Q): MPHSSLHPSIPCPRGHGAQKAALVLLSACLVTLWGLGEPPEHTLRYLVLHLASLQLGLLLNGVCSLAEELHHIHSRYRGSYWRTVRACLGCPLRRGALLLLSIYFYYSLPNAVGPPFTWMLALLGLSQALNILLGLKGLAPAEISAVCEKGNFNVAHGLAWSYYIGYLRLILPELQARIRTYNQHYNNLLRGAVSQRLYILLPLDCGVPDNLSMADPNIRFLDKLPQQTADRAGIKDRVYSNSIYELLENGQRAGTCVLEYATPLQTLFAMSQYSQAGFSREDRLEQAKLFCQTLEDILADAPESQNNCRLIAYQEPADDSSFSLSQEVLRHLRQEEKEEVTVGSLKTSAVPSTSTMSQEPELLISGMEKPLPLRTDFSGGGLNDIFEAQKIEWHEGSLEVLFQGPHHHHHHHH
T2 sequence (Q86WV6 with tags, fused parts or gaps H232R): as the sequence (Q86WV6 with tags, fused parts or gaps R71H/G230A/H232R/R293Q) above, with H71R, A230G, Q293R counted along it

Row | EC50 (full-length HAQ STING) | EC50 (full-length WT STING) | Compound | activation at 30 µM [1]
1 | 2 nM | 4 nM | COc1cc2sc(C(=O)CCC(=O)O)cc2c(F)c1OCCCOc1c(OC)cc2sc(C(=O)C[C@H](C)C(=O)O)cc2c1F [Example 64, (S)-4-(5-(3-((2-(3-carboxypropanoyl)-4-fluoro-6-methoxybenzo[b]thiophen-5-yl)oxy)propoxy)-4-fluoro-6-methoxybenzo[b]thiophen-2-yl)-2-methyl-4-oxobutanoic acid] | 58%
2 | 1 nM | 1 nM | COc1cc2sc(C(=O)CCC(=O)O)cc2c(F)c1OCCOc1c(OC)cc2sc(C(=O)CCC(=O)O)cc2c1F [Example 65, 4,4′-((ethane-1,2-diylbis(oxy))bis(4-fluoro-6-methoxybenzo[b]thiophene-5,2-diyl))bis(4-oxobutanoic acid)] | 105%
3 | 4 nM | 20 nM | COc1cc2sc(C(=O)C[C@@H](C)C(=O)O)cc2cc1OCCOc1c(OC)cc2sc(C(=O)C[C@H](C)C(=O)O)cc2c1F [Example 66, (R)-4-(5-(2-((2-((S)-3-carboxybutanoyl)-4-fluoro-6-methoxybenzo[b]thiophen-5-yl)oxy)ethoxy)-6-methoxybenzo [b]thiophen-2-yl)-2-methyl-4-oxobutanoic acid] | 103%
4 | 40 nM | 45 nM | COc1cc2sc(C(=O)C[C@H](C)C(=O)O)cc2cc1OCCOc1c(OC)cc2sc(C(=O)C[C@H](C)C(=O)O)cc2c1F [Example 67, (S)-4-(5-(2-((2-((S)-3-carboxybutanoyl)-4-fluoro-6-methoxybenzo[b]thiophen-5-yl)oxy)ethoxy)-6-methoxybenzo[b]thiophen-2-yl)-2-methyl-4-oxobutanoic acid] | 92%
5 | 1 nM | 2 nM | COc1cc2sc(C(=O)C[C@H](C)C(=O)O)cc2cc1OCCCOc1c(OC)cc2sc(C(=O)C[C@H](C)C(=O)O)cc2c1F [Example 69, (S)-4-(5-(3-((2-((S)-3-carboxybutanoyl)-4-fluoro-6-methoxybenzo[b]thiophen-5-yl)oxy)propoxy)-6-methoxybenzo[b]thiophen-2-yl)-2-methyl-4-oxobutanoic acid] | 46%
6 | 1 nM | 1 nM | COc1cc2cc(C(=O)C[C@H](C)C(=O)O)sc2cc1OCCCOc1c(OC)cc2sc(C(=O)C[C@H](C)C(=O)O)cc2c1F [Example 70, (S)-4-(6-(3-((2-((S)-3-carboxybutanoyl)-4-fluoro-6-methoxybenzo[b]thiophen-5-yl)oxy)propoxy)-5-methoxybenzo[b]thiophen-2-yl)-2-methyl-4-oxobutanoic acid] | 47%
7 | 3 nM | 2 nM | COc1cc2sc(C(=O)C[C@H](C)C(=O)O)cc2cc1OCCCOc1c(OC)cc2sc(C(=O)CC(C)(C)C(=O)O)cc2c1F [Example 71, (S)-4-(5-(3-((2-(3-carboxybutanoyl)-6-methoxybenzo[b]thiophen-5-yl)oxy)propoxy)-4-fluoro-6-methoxybenzo[b]thiophen-2-yl)-2,2-dimethyl-4-oxobutanoic acid] | 15%
8 | 1 nM | 2 nM | COc1cc2sc(C(=O)C[C@H](C)C(=O)O)cc2cc1OCCCOc1c(OC)cc2sc(C(=O)CCC(=O)O)cc2c1F [Example 72, (S)-4-(5-(3-((2-(3-carboxypropanoyl)-4-fluoro-6-methoxybenzo[b]thiophen-5-yl)oxy)propoxy)-6-methoxybenzo[b]thiophen-2-yl)-2-methyl-4-oxobutanoic acid] | 77%
9 | 1 nM | 4 nM | COc1cc2cc(C(=O)C[C@H](C)C(=O)O)sc2cc1OCCCOc1c(OC)cc2sc(C(=O)CCC(=O)O)cc2c1F [Example 73, (S)-4-(6-(3-((2-(3-carboxypropanoyl)-4-fluoro-6-methoxybenzo[b]thiophen-5-yl)oxy)propoxy)-5-methoxybenzo[b]thiophen-2-yl)-2-methyl-4-oxobutanoic acid] | 67%
10 | 4 nM | 6 nM | COc1cc2sc(C(=O)C[C@H](C)C(=O)O)cc2cc1NCCCOc1cc2cc(C(=O)C[C@H](C)C(=O)O)sc2cc1OC [Example 74, (S)-4-(5-(3-((2-((S)-3-carboxybutanoyl)-6-methoxybenzo[b]thiophen-5-yl)amino)propoxy)-6-methoxybenzo[b]thiophen-2-yl)-2-methyl-4-oxobutanoic acid] | 16%
11 | 139 nM | 691 nM | COc1cc2sc(C(=O)CCC(=O)O)cc2cc1CCCNc1nc2cc(C(=O)CCC(=O)O)sc2cc1OC [Example 75, 4-(5-((3-(2-(3-carboxypropanoyl)-6-methoxybenzo[b]thiophen-5-yl)propyl)amino)-6-methoxythieno[3,2-b]pyridin-2-yl)-4-oxobutanoic acid] | 63%
12 | 22 nM | 56 nM | COc1cc2sc(C(=O)C[C@H](C)C(=O)O)cc2cc1OCCOc1cc2cc(C(=O)C[C@H](C)C(=O)O)sc2cc1OC [Example 76, (2S,2′S)-4,4′-((ethane-1,2-diylbis(oxy))bis(6-methoxybenzo[b]thiophene-5,2-diyl))bis(2-methyl-4-oxobutanoic acid)] | 44%
13 | 5 nM | 12 nM | C[C@@H](CC(=O)c1cc2cc(OCCCOc3cc4cc(C(=O)C[C@H](C)C(=O)O)sc4cc3OC(F)F)c(OC(F)F)cc2s1)C(=O)O [Example 79, (2S,2′S)-4,4′-(1,3-propanediylbis{oxy[6-(difluoromethoxy)-1-benzothiene-5,2-diyl]})bis(2-methyl-4-oxobutanoic acid)] | 49%
14 | 1300 nM | 12700 nM | COc1cc2sc(C(=O)[C@H]3C[C@@H]3C(=O)O)cc2cc1OCCCOc1cc2cc(C(=O)[C@@H]3C[C@H]3C(=O)O)sc2cc1OC [Example 80, rac-(1S,2S)-2-(5-(3-((2-((1R, 2R)-2-carboxy-cyclopropane-1-carbonyl)-6-methoxybenzo[b]thiophen-5-yl)oxy)propoxy)-6-methoxybenzo[b]thiophene-2-carbonyl)cyclopropane-1-carboxylic acid] | 12%
15 | 2 nM | 23 nM | COc1cc2sc(C(=O)CCC(=O)O)cc2nc1OCCOc1c(OC)cc2sc(C(=O)CCC(=O)O)cc2c1F [Example 81, 4-(5-(2-((2-(3-carboxypropanoyl)-4-fluoro-6-methoxybenzo[b]thiophen-5-yl)oxy)ethoxy)-6-methoxythieno[3,2-b]pyridin-2-yl)-4-oxobutanoic acid] | 120%
16 | 1 nM | 2 nM | COc1cc2sc(C(=O)CCC(=O)O)cc2nc1OCCCOc1c(OC)cc2sc(C(=O)CCC(=O)O)cc2c1F [Example 82, 4-(5-(3-((2-(3-carboxypropanoyl)-4-fluoro-6-methoxybenzo[b]thiophen-5-yl)oxy)propoxy)-6-methoxythieno[3,2-b]pyridin-2-yl)-4-oxobutanoic acid] | 158%
17 | 2 nM | 9 nM | COc1cc2sc(C(=O)CCC(=O)O)cc2nc1OCCOc1c(OC)cc2sc(C(=O)C[C@H](C)C(=O)O)cc2c1F [Example 83, (S)-4-(5-(2-((2-(3-carboxypropanoyl)-6-methoxythieno[3,2-b]pyridin-5-yl)oxy)ethoxy)-4-fluoro-6-methoxybenzo[b]thiophen-2-yl)-2-methyl-4-oxobutanoic acid] | 107%
